The target in assay [1] is T1, TcGr20 (gustatory receptor 20) (Tribolium castaneum, UniProt D2A5I4).
T1 construct: ORF of TcGr20 expressed in Xenopus oocytes
T1 sequence (D2A5I4 1-388): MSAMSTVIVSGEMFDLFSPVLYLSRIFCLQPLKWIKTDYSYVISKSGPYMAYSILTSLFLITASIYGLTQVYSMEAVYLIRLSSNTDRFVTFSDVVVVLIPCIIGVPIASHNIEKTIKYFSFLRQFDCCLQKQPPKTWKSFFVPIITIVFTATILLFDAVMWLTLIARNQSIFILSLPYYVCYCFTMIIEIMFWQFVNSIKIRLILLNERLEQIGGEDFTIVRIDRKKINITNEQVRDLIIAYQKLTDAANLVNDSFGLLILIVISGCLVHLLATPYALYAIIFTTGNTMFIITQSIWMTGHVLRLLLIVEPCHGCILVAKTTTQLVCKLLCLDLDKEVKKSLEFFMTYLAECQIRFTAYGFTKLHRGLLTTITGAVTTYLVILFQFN
Briefly: two-electrode voltage clamp in Xenopus oocytes expressing TcGr20, dose-response; water-injected control negative. The class given is cell-based. For orientation: In two-electrode clamp one electrode senses voltage and the other passes current.

Assay [2] deals with T1, TcGr20 (gustatory receptor 20). As to the kind of experiment: two-electrode voltage clamp in Xenopus oocytes expressing TcGr20, dose-response. The class given is cell-based.

Each structure is given as a SMILES string.

The term EC50 denotes the midpoint of the concentration-response curve. Low values mean higher potency in that assay, high ones lower potency in that assay.

With `OC[C@@H](O)[C@@H](O)[C@H](O)[C@H](O)CO` [mannitol], in assay [1], a half-maximal response (EC50) required 72.6 ± 9.1 mM.

For the compound `OC[C@@H](O)[C@@H](O)[C@H](O)[C@@H](O)CO` [sorbitol], a half-maximal effect in assay [2] (EC50) was put at 90.6 ± 10.4 mM.

For the origin of these results see paper PMC5638539, “A mannitol/sorbitol receptor stimulates dietary intake in Tribolium castaneum” (PLoS ONE, 2017).
